Test results published in ChEMBL document CHEMBL1201862, “PubChem BioAssay data set” (2004).
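Where inhibition never reached the appropriate level, the endpoint shown equals the highest concentration tested. Otherwise, values were interpolated linearly from a five-concentration, 48-hour dose response in 96-well plates. Abbreviation: GI50, concentration required for 50% inhibition of growth.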 Active and inactive are the calls of the source. Cut-off read from the data, not from the text of the source: active = GI50 up to about 1.1 µM and inactive = higher.

Assays:
Test in all cases: NCI anticancer screen, dose series, 48 h
TK-10 = tested on: TK-10
SF-295 = tested on: SF-295
CCRF-CEM = tested on: CCRF-CEM
SK-MEL-5 = tested on: SK-MEL-5
Malme-3M = tested on: Malme-3M
OVCAR-4 = tested on: OVCAR-4
DU-145 = tested on: DU-145
SF-268 = tested on: SF-268
SF-539 = tested on: SF-539
OVCAR-5 = tested on: OVCAR-5
HOP-62 = tested on: HOP-62
A498 = tested on: A498
UACC-257 = tested on: UACC-257
EKVX = tested on: EKVX
RPMI-8226 = tested on: RPMI-8226
HCC 2998 = tested on: HCC 2998
PC-3 = tested on: PC-3
SK-MEL-2 = tested on: SK-MEL-2

Measured: GI50

C=CO/N=[N+](\[O-])N(CC)CC
inactive: TK-10 > 100 µM | SF-295 > 100 µM | CCRF-CEM > 100 µM | SK-MEL-5 > 100 µM | Malme-3M > 100 µM | OVCAR-4 > 100 µM | DU-145 > 100 µM | SF-268 > 100 µM | SF-539 > 100 µM | OVCAR-5 > 100 µM | HOP-62 > 100 µM | A498 > 100 µM | UACC-257 > 100 µM | EKVX > 100 µM | RPMI-8226 > 100 µM | HCC 2998 > 100 µM

NCCCc1nonc1C(=O)O
inactive: TK-10 > 100 µM | SF-295 > 100 µM | CCRF-CEM > 100 µM | SK-MEL-5 > 100 µM | Malme-3M > 100 µM | PC-3 > 100 µM | OVCAR-4 > 100 µM | DU-145 > 100 µM | SF-268 > 100 µM | SF-539 > 100 µM | OVCAR-5 > 100 µM | SK-MEL-2 > 100 µM | HOP-62 > 100 µM | UACC-257 > 100 µM | EKVX > 100 µM | RPMI-8226 > 100 µM | HCC 2998 > 100 µM

N#CC(C#N)=Cc1ccc2c(c1)OC(Cl)O2 (centres undefined)
inactive: TK-10 29.6 µM | SF-295 19.3 µM | CCRF-CEM 20.4 µM | SK-MEL-5 19.1 µM | Malme-3M 18.1 µM | PC-3 23.2 µM | OVCAR-4 42.2 µM | DU-145 27.7 µM | SF-268 29.4 µM | SF-539 20.4 µM | OVCAR-5 20.9 µM | SK-MEL-2 21.9 µM | UACC-257 21.7 µM | EKVX 27.4 µM | RPMI-8226 17.8 µM

CCC(=O)C(C(C)/C=C/CCSc1ccccc1)C(O)CCCCCC(=O)OC (centres undefined)
inactive: TK-10 > 100 µM | SF-295 > 100 µM | CCRF-CEM 38.6 µM | SK-MEL-5 36.8 µM | Malme-3M > 100 µM | PC-3 84.1 µM | OVCAR-4 > 100 µM | DU-145 > 100 µM | SF-268 > 100 µM | SF-539 > 100 µM | OVCAR-5 > 100 µM | SK-MEL-2 > 100 µM | HOP-62 > 100 µM | UACC-257 58.9 µM | EKVX > 100 µM | RPMI-8226 > 100 µM | HCC 2998 > 100 µM

CC(C)(CN)SCc1ccccc1
inactive: TK-10 > 100 µM | SF-295 > 100 µM | CCRF-CEM > 100 µM | SK-MEL-5 > 100 µM | Malme-3M > 100 µM | PC-3 > 100 µM | OVCAR-4 > 100 µM | DU-145 > 100 µM | SF-268 > 100 µM | SF-539 > 100 µM | OVCAR-5 > 100 µM | SK-MEL-2 > 100 µM | HOP-62 > 100 µM | A498 > 100 µM | UACC-257 28.7 µM | EKVX > 100 µM | RPMI-8226 > 100 µM

CCCCC1=C(C(=O)N2CCOCC2)C2(OCCO2)C1Cl (centres undefined)
inactive: TK-10 29.9 µM | SF-295 28.1 µM | CCRF-CEM > 100 µM | SK-MEL-5 18.5 µM | Malme-3M 33.6 µM | PC-3 35.6 µM | OVCAR-4 28.8 µM | DU-145 44.5 µM | SF-268 40.8 µM | SF-539 16.4 µM | OVCAR-5 19.4 µM | SK-MEL-2 19.8 µM | HOP-62 35.2 µM | A498 66.7 µM | UACC-257 24.3 µM | EKVX 47.1 µM

Cc1ccc(C(=O)N/N=C(\N=N\c2ccccc2)c2ccc(N(C)C)cc2)cc1
inactive: TK-10 > 100 µM | SF-295 > 100 µM | CCRF-CEM > 100 µM | SK-MEL-5 92 µM | PC-3 > 100 µM | OVCAR-4 16.3 µM | DU-145 20.9 µM | SF-268 50.7 µM | SF-539 > 100 µM | OVCAR-5 > 100 µM | SK-MEL-2 > 100 µM | UACC-257 > 100 µM | EKVX > 100 µM | RPMI-8226 > 100 µM | HCC 2998 90.8 µM

O=C(CC(C(=O)c1cccs1)c1ccsc1)c1ccsc1 (centres undefined)
inactive: TK-10 > 100 µM | SF-295 24.6 µM | CCRF-CEM 29 µM | SK-MEL-5 16.1 µM | Malme-3M 78.5 µM | PC-3 29 µM | OVCAR-4 27.4 µM | DU-145 44.8 µM | SF-268 51.6 µM | SF-539 27.5 µM | OVCAR-5 > 100 µM | HOP-62 56.9 µM | A498 11.4 µM | UACC-257 70.5 µM | EKVX 38 µM | RPMI-8226 27.1 µM | HCC 2998 34.1 µM

O=c1c2cc(S(=O)(=O)Nc3ccccc3Cl)ccc2ncn1NS(=O)(=O)c1ccc(Br)cc1
inactive: TK-10 > 37.5 µM | SF-295 > 37.5 µM | CCRF-CEM > 37.5 µM | Malme-3M > 37.5 µM | PC-3 > 37.5 µM | OVCAR-4 > 37.5 µM | DU-145 > 37.5 µM | SF-268 > 37.5 µM | SF-539 > 37.5 µM | OVCAR-5 > 37.5 µM | SK-MEL-2 > 37.5 µM | HOP-62 > 37.5 µM | UACC-257 > 37.5 µM | EKVX > 37.5 µM | RPMI-8226 > 37.5 µM | HCC 2998 > 37.5 µM

N=C(N)C1CN(CC=O)C(=O)NC1=O (centres undefined)
inactive: TK-10 > 100 µM | SF-295 > 100 µM | CCRF-CEM > 100 µM | SK-MEL-5 > 100 µM | Malme-3M > 100 µM | PC-3 > 100 µM | OVCAR-4 > 100 µM | DU-145 > 100 µM | SF-268 > 100 µM | OVCAR-5 > 100 µM | HOP-62 > 100 µM | A498 > 100 µM | UACC-257 > 100 µM | EKVX > 100 µM | RPMI-8226 > 100 µM | HCC 2998 > 100 µM

S=C(Nc1ccc(/N=N/c2ccccc2)cc1)SCc1ccccc1
inactive: TK-10 12.5 µM | SF-295 17.9 µM | CCRF-CEM 15.9 µM | SK-MEL-5 15.7 µM | Malme-3M 11 µM | PC-3 15 µM | OVCAR-4 16.1 µM | DU-145 15.9 µM | SF-268 17 µM | SF-539 18.4 µM | SK-MEL-2 21.4 µM | HOP-62 20.2 µM | A498 19.9 µM | UACC-257 16.3 µM | EKVX 24.8 µM | RPMI-8226 5.04 µM

CCOC(=O)C1Cc2ccc(C)cc2C1=O (centres undefined)
inactive: TK-10 > 100 µM | SF-295 > 100 µM | CCRF-CEM 34 µM | SK-MEL-5 72.1 µM | Malme-3M 70 µM | PC-3 > 100 µM | OVCAR-4 81.7 µM | DU-145 > 100 µM | SF-268 79.3 µM | SF-539 > 100 µM | OVCAR-5 > 100 µM | SK-MEL-2 > 100 µM | HOP-62 > 100 µM | UACC-257 > 100 µM | EKVX > 100 µM | RPMI-8226 41.1 µM | HCC 2998 > 100 µM

CN1C(=O)CC2CCC(=O)N2c2cccnc21 (centres undefined)
inactive: TK-10 > 100 µM | SF-295 > 100 µM | CCRF-CEM > 100 µM | SK-MEL-5 > 100 µM | Malme-3M > 100 µM | OVCAR-4 > 100 µM | DU-145 > 100 µM | SF-268 > 100 µM | SF-539 > 100 µM | SK-MEL-2 > 100 µM | HOP-62 > 100 µM | UACC-257 > 100 µM | EKVX > 100 µM | RPMI-8226 > 100 µM | HCC 2998 > 100 µM

Cc1n[nH]c(=O)n1C1CCCC1
inactive: TK-10 > 100 µM | SF-295 > 100 µM | CCRF-CEM > 100 µM | SK-MEL-5 > 100 µM | Malme-3M > 100 µM | PC-3 > 100 µM | OVCAR-4 > 100 µM | DU-145 > 100 µM | SF-268 > 100 µM | SF-539 > 100 µM | OVCAR-5 > 100 µM | HOP-62 > 100 µM | A498 > 100 µM | UACC-257 > 100 µM | EKVX > 100 µM | RPMI-8226 > 100 µM | HCC 2998 > 100 µM

CC(=O)C1C(=O)C(=O)N(c2cccc([N+](=O)[O-])c2)C1=O (centres undefined)
inactive: TK-10 > 100 µM | SF-295 > 100 µM | CCRF-CEM > 100 µM | SK-MEL-5 > 100 µM | PC-3 > 100 µM | OVCAR-4 > 100 µM | DU-145 > 100 µM | SF-268 > 100 µM | SF-539 > 100 µM | OVCAR-5 > 100 µM | SK-MEL-2 > 100 µM | HOP-62 > 100 µM | UACC-257 > 100 µM | EKVX > 100 µM | HCC 2998 > 100 µM

CC(C)(C)OC(=O)Nc1nnc(S(N)(=O)=O)s1
inactive: TK-10 > 100 µM | SF-295 > 100 µM | CCRF-CEM > 100 µM | SK-MEL-5 > 100 µM | Malme-3M > 100 µM | OVCAR-4 > 100 µM | DU-145 > 100 µM | SF-268 > 100 µM | SF-539 > 100 µM | OVCAR-5 > 100 µM | SK-MEL-2 > 100 µM | HOP-62 > 100 µM | A498 > 100 µM | UACC-257 > 100 µM | EKVX > 100 µM | RPMI-8226 > 100 µM | HCC 2998 > 100 µM

O=C1c2ccccc2-c2oc(=O)c3ccccc3c21
inactive: TK-10 > 100 µM | SF-295 > 100 µM | CCRF-CEM > 100 µM | SK-MEL-5 > 100 µM | PC-3 > 100 µM | OVCAR-4 > 100 µM | DU-145 > 100 µM | SF-539 > 100 µM | OVCAR-5 > 100 µM | SK-MEL-2 > 100 µM | HOP-62 > 100 µM | A498 > 100 µM | UACC-257 > 100 µM | EKVX 24.8 µM | RPMI-8226 41.3 µM
